Common to all, as to type: biochemical
Experiment [1] has as its target T1, SHP2 (Homo sapiens, UniProt Q06124).
T1 construct: purchased Sigma-Aldrich
T1 sequence (Q06124 1-593): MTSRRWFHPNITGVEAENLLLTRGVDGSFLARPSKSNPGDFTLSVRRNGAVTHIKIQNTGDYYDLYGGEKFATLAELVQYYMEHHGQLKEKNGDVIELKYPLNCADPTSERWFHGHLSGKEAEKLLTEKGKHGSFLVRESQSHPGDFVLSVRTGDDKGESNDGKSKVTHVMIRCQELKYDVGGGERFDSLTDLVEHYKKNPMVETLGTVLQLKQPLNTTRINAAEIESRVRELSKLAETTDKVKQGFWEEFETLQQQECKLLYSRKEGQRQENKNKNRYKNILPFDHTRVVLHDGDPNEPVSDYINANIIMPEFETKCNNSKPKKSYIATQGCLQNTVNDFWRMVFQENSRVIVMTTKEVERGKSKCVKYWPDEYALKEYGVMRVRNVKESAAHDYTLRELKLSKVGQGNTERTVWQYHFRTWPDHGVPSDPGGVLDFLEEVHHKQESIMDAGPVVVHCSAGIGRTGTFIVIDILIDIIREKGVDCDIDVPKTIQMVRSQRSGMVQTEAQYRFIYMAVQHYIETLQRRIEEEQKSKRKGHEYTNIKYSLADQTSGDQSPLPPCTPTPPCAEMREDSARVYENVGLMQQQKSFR
In words: Inhibition of human recombinant tyrosine phosphatase SHP2 (DiFMUP fluorescence). The method, then: (§1) To determine the ability of the tested compounds for inhibition tyrosine phosphatases, human recombinant proteins were used (Sigma-Aldrich). The reactions were performed in black opaque 384-well microplates (PerkinElmer, Waltham, MA, USA). An equal volume of phosphatase solution in a reaction buffer (25 mM of 3-(N-morpholino)propanesulfonic acid (MOPS), 50 mM NaCl, 1 mM dithiothreitol (DTT), and 0.05% Tween-20 (pH 7.0)) was added to the solution of the tested compound on microplate. These solutions were dispensed using an automated injector. The following final concentrations of the tested phosphatases were used: PTP1B 50 ng/mL, SHP1 400 ng/mL, SHP2 50 ng/mL, LAR 5 ng/mL, and PTPRA 100 ng/mL. After 10 min, a solution of phosphate 6,8-difluoro-4-methyl (DiFMUP; Thermo Fisher Scientific) was added until its final concentration was 0.1 mM. Samples were incubated for 20 miN at 23 °C, and then the measurements of fluorescence intensity (excitation 355 and emission […]) were performed on a multifunctional plate reader POLARstar Omega (BMG Labtech, Ortenberg, Germany). Assays were performed in triplicate. For the screening assays, the final concentration of the tested compounds was 1 µM. The results were expressed as percent inhibition of untreated control (enzyme with vehicle only) for the screening tests. […] IC50 were calculated using GraphPad Prism version 6.0 software (GraphPad Software, Boston, MA, USA).

The target in experiment [2] is T2, LAR (Homo sapiens, UniProt P10586).
T2 sequence (P10586 1352-1607 limits assumed): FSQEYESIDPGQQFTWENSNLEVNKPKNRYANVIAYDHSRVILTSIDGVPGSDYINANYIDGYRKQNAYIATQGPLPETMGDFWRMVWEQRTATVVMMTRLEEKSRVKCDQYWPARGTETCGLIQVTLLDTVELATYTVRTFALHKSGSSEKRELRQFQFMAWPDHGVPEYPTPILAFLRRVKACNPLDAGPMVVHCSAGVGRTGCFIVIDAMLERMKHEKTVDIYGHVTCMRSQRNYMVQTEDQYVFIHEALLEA
In words: Inhibition of human recombinant tyrosine phosphatase LAR (DiFMUP fluorescence). The method, then: as §1

Experiment [3] has as its target T3, SHP1 (Homo sapiens, UniProt P29350).
T3 construct: purchased Sigma-Aldrich
In words: Inhibition of human recombinant tyrosine phosphatase SHP1 (DiFMUP fluorescence). To be noted: for Log IC50 ± SD SHP1: logarithm of IC50. As to the method:
as §1

The target in experiment [4] is T4, PTP1B (Homo sapiens, UniProt P18031).
T4 construct: purchased Sigma-Aldrich
T4 sequence (P18031 1-435): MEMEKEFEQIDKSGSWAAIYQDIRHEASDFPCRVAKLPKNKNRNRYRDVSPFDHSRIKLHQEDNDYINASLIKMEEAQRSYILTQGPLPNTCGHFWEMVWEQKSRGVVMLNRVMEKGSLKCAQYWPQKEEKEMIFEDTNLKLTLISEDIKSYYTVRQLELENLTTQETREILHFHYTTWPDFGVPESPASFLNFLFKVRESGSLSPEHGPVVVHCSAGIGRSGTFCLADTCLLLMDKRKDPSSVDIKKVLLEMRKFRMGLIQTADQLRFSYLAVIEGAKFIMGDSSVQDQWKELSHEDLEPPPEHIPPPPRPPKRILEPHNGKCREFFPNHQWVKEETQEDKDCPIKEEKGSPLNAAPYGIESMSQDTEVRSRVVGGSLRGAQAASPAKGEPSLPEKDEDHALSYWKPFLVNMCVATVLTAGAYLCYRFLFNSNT
In words: Inhibition of human recombinant tyrosine phosphatase PTP1B (DiFMUP fluorescence). Conditions: for Inhibition of PTP1B, percentage of inhibition of the control: 1 µM, control solvent only, SD did not exceed 6%; for Log IC50 ± SD PTP1B: logarithm of IC50; for IC50: read-out: IC50 PTP1B. The method, then: as §1

The target of experiment [5] is PP2A (Homo sapiens, UniProt P67775). In words: Inhibition of human recombinant non-tyrosine phosphatase PP2A (DiFMUP). The method, then:
(§2) For the inhibition assay of non-tyrosine phosphatases, human recombinant proteins were used (Sigma-Aldrich). The reactions were performed in black opaque 384-well microplates (PerkinElmer). To the solution of the tested complexes, an equal volume of a test solution of phosphatase was added. CDC25A were diluted in reaction buffer to the final concentration of 400 ng/mL as for tyrosine phosphatases (described in the section above), and PPA2 (final 0.5 U/mL) was diluted in 50 mM Tris-HCl, 0.05% Tween-20, and 125 µg/mL protease-free bovine serum albumin (pH 7.0). These solutions were dispensed using an automated injector. After 10 min, a solution of phosphate 6,8-difluoro-4-methyl (DiFMUP; Thermo Fisher Scientific) was added for the PPA2 sample until the final concentration 0.1 mM. For CDC25A samples, 3-O-methylfluorescein phosphate for the final concentration of 0.2 mM was added. Samples were incubated for 180 min at 23 °C, and then the measurements of fluorescence intensity (excitation 355 and emission 560 nm) were performed on a multifunctional plate reader POLARstar Omega (BMG Labtech). Assays were performed in triplicate. The results were expressed as percent of inhibition of untreated control (enzyme with vehicle solvent only).

The target of experiment [6] is T5, CDC25A (Homo sapiens, UniProt P30304).
T5 construct: purchased Sigma-Aldrich
T5 sequence (P30304 1-524): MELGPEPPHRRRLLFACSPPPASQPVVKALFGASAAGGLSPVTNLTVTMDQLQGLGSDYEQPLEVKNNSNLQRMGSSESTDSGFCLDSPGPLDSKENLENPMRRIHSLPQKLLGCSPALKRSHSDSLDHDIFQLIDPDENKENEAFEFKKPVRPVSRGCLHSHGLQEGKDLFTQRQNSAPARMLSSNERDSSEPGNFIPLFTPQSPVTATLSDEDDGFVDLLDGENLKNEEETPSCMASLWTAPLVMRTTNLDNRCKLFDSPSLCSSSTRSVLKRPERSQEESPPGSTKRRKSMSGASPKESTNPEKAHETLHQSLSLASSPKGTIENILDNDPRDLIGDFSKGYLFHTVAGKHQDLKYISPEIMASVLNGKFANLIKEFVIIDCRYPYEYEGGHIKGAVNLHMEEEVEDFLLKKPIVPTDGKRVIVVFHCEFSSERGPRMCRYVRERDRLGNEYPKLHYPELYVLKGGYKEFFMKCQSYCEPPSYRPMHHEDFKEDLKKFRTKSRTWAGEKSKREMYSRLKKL
In words: Inhibition of human recombinant non-tyrosine phosphatase CDC25A (3-O-methylfluorescein phosphate). The method, then: as §2

[7] abbreviates: 1 µM, control solvent only, SD did not exceed 6%.

The values that follow come from PMC10892041, “Vanadium Complexes with Thioanilide Derivatives of Amino Acids: Inhibition of Human Phosphatases and Specificity in Various Cell Models of Metabolic Disturbances” (Pharmaceuticals, 2024).

T3 sequence (P29350 whole entry): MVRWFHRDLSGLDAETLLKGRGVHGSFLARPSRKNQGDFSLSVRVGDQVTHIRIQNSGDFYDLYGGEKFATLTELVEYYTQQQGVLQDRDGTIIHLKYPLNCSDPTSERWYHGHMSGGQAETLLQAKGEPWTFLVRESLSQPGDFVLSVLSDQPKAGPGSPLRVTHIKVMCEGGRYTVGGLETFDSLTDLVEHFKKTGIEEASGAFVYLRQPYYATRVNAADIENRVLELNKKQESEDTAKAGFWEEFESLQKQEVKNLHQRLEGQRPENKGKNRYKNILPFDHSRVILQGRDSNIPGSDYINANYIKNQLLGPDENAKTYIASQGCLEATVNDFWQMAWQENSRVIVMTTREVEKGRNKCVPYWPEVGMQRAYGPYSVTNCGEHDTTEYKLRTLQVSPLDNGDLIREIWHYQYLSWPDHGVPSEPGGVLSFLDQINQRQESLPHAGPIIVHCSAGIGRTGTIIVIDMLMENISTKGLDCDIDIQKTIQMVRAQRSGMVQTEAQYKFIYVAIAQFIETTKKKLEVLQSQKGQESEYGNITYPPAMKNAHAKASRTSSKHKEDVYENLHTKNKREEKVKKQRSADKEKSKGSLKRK
PP2A, sequence (P67775 whole entry): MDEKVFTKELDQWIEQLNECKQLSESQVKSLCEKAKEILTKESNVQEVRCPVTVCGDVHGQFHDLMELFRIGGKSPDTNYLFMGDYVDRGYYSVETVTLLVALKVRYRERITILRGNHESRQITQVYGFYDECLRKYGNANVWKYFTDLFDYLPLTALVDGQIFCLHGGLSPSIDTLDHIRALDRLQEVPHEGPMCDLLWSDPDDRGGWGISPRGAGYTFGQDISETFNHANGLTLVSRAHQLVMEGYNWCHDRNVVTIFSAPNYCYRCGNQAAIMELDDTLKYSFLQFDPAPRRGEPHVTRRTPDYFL

Regarding `CCC(C)C(N=C(C)CC(=S)Nc1ccccc1)C(=O)[O][V](=[O])([Cl])[Cl]` (racemic) [VC109, [VOCl2(L5)]·3HCl], the “Inhibition of SHP2, percentage of inhibition of the control” value in experiment [1] (setting [7]) turned out to be 83%. Besides, the “Inhibition of LAR, percentage of inhibition of the control” value in experiment [2] (setting [7]) came to 56%. The “Inhibition of SHP1, percentage of inhibition of the control” value in experiment [3] (setting [7]) is 80%. Moreover, the “Inhibition of PTP1B, percentage of inhibition of the control” value in experiment [4] is reported as 70%.

Regarding `Cc1ccc(C(=O)Nc2ccc(S(=O)(=O)O)c3cc(S(=O)(=O)O)cc(S(=O)(=O)O)c23)cc1NC(=O)c1cccc(NC(=O)Nc2cccc(C(=O)Nc3cc(C(=O)Nc4ccc(S(=O)(=O)O)c5cc(S(=O)(=O)O)cc(S(=O)(=O)O)c45)ccc3C)c2)c1` [Suramin, reference compound], the inhibition at 1 µM in experiment [1] (1 µM, control solvent only, SD did not exceed 6%, read-out: Inhibition of SHP2, percentage of inhibition of the control) is 10%; in experiment [2] (1 µM, control solvent only, SD did not exceed 6%, read-out: Inhibition of LAR, percentage of inhibition of the control) it was 9%; in experiment [3] (1 µM, control solvent only, SD did not exceed 6%, read-out: Inhibition of SHP1, percentage of inhibition of the control), 17%; in experiment [4] (read-out: Inhibition of PTP1B, percentage of inhibition of the control), 7%.

For the molecule `O.[O]=[V]1[O]C(c2ccc(O)cc2)=NN=Cc2cc(Br)ccc2[O]1.c1cnc2c(c1)ccc1cccnc12` [VC046, [VO(L9)(phen)]⋅2H2O], the “Inhibition of SHP2, percentage of inhibition of the control” value in experiment [1] (setting [7]) was found to be 66%. In experiment [2] (setting [7]), the “Inhibition of LAR, percentage of inhibition of the control” value is given as 37%. The “Inhibition of SHP1, percentage of inhibition of the control” value in experiment [3] (setting [7]) was determined as 62%. Further, in experiment [4], the “Inhibition of PTP1B, percentage of inhibition of the control” value came out at 34%.

With `CC(C)(C)c1ccc(C2=NN=Cc3cc(Br)ccc3[O][V](=[O])[O]2)cc1.O.c1cnc2c(c1)ccc1cccnc12` [VC048, [VO(L10)(phen)]⋅0.5H2O], the “Inhibition of SHP2, percentage of inhibition of the control” value in experiment [1] (setting [7]) turned out to be 64%. Moreover, the “Inhibition of LAR, percentage of inhibition of the control” value in experiment [2] (setting [7]) came to 35%. In experiment [3] (setting [7]), the “Inhibition of SHP1, percentage of inhibition of the control” value is on record as 62%. The “Inhibition of PTP1B, percentage of inhibition of the control” value in experiment [4] stood at 36%.

With `[O]=[V]1[O]C(c2ccc(Cl)cc2)=NN=Cc2cc(Br)ccc2[O]1.c1cnc2c(c1)ccc1cccnc12` [VC050, [VO(L11)(phen)]], the “Inhibition of PP2A, percentage inhibition of control ± SD” value in experiment [5] (1 µM) is recorded as 24 ± 3%; in experiment [5] (10 µM), 51 ± 4%. For the same molecule, the IC50 is 273 nM in experiment [1], 1710 nM in experiment [2], 657 nM in experiment [3] and 4260 nM in experiment [4]. In experiment [1] (setting [7]), the “Inhibition of SHP2, percentage of inhibition of the control” value is listed as 57%. Further, the “Inhibition of LAR, percentage of inhibition of the control” value in experiment [2] (setting [7]) is reported as 19%. Besides, the “Inhibition of CDC25A, percentage inhibition of control ± SD” value in experiment [6] (1 µM) is given as 12 ± 8%; in experiment [6] (10 µM), 38 ± 1%. Besides, in experiment [3] (setting [7]), the “Inhibition of SHP1, percentage of inhibition of the control” value is 53%. In experiment [3], the “Log IC50 ± SD SHP1” value is given as −6.18 ± 0.03. Also, the “Inhibition of PTP1B, percentage of inhibition of the control” value in experiment [4] was determined as 25%. Moreover, the “Log IC50 ± SD PTP1B” value in experiment [4] is recorded as −5.37 ± 0.03.

As to `C1CCOC1.CSCCC1C(=O)[O][V](=[O])([Cl])([Cl])[N]1C(C)=CC(=S)Nc1ccccc1.Cl` (centres unmarked) [VC073, [VOCl2(L4)]·1.5THF·3HCl], the “Inhibition of SHP2, percentage of inhibition of the control” value in experiment [1] (setting [7]) was 86%. Further, the “Inhibition of LAR, percentage of inhibition of the control” value in experiment [2] (setting [7]) turned out to be 63%. In addition, in experiment [3] (setting [7]), the “Inhibition of SHP1, percentage of inhibition of the control” value turned out to be 82%. The “Inhibition of PTP1B, percentage of inhibition of the control” value in experiment [4] came to 74%.

Regarding “ammonium heptamolybdate [(NH4)6Mo7O24, reference compound]”, the “Inhibition of PP2A, percentage inhibition of control ± SD” value in experiment [5] (1 µM) is 18 ± 2%; in experiment [5] (10 µM) it was 53 ± 3%. Besides, the half-maximal inhibitory concentration (IC50) in experiment [1] was 26 nM; in experiment [2] it was 38 nM; in experiment [3], 26 nM; in experiment [4], 58 nM. Also, the “Inhibition of SHP2, percentage of inhibition of the control” value in experiment [1] (setting [7]) was 47%. Also, in experiment [1] (logarithm of IC50), the “Log IC50 ± SD SHP2” value is on record as −7.58 ± 0.04. Moreover, in experiment [2] (setting [7]), the “Inhibition of LAR, percentage of inhibition of the control” value was 28%. Moreover, the “Log IC50 ± SD LAR” value in experiment [2] (logarithm of IC50) is −7.42 ± 0.04. Besides, the entries for the “Inhibition of CDC25A, percentage inhibition of control ± SD” value in experiment [6] (1 µM) and in experiment [6] (10 µM) were 34 ± 1% and 51 ± 1%, respectively. In experiment [3] (setting [7]), the “Inhibition of SHP1, percentage of inhibition of the control” value amounted to 40%. Moreover, in experiment [3], the “Log IC50 ± SD SHP1” value is listed as −7.59 ± 0.13. Further, the “Inhibition of PTP1B, percentage of inhibition of the control” value in experiment [4] came out at 33%. The “Log IC50 ± SD PTP1B” value in experiment [4] is −7.24 ± 0.06.

A word on the inhibition: it is the relative decrease from the control value, in per cent. Broadly, the IC50 is the point on the concentration scale where inhibition reaches its midpoint.
